pIC50: −log10 of the molar value.
Molecular target: T1, human histamine H3 receptor (Homo sapiens, UniProt Q9Y5N1)
T1 construct: expressed in transfected cells; host or cells: HEK293 and CHO-K1
Experiment: Test for Inhibition of Bonding of Histamine Analog
Assay type: binding
Conditions: for pIC50: membrane specimen from histamine H3 receptor-expressed cells, [3H]N-α-methylhistamine, 25° C., 2 hours, read-out: 50% inhibition concentration (IC50 value) of the test compound to a specific N-alpha-methylhistamine bond; for inhibition of the bond of N-alpha-methylhistamine (histamine analog) to a histamine H3 receptor: summary in words of the IC50 results
Description: A cDNA sequence coding for human histamine H3 receptor [refer to WO 00/39164] was cloned to an expression vector pCR2.1, pEF1× (manufactured by Invitrogen) and pCI-neo (manufactured by Promega). The resulting expression vector was transfected to host cells HEK293 and CHO-K1 (American Type Culture Collection) by a cationic lipid method [refer to Proceedings of the National Academy of Sciences, the United States of America, volume 84, page 7413 (1987)] to give histamine H3 receptor-expressed cells.
A membrane specimen prepared from the cells where histamine H3 receptor was expressed was incubated at 25° C. for 2 hours in an assay buffer (50 mM Tris buffer, pH 7.4) together with a test compound (the compound of Example 1) and 20,000 cpm of [3H]N-α-methylhistamine (manufactured by NEN) and then filtered using a glass filter GF/C. After washing with a 50 mM Tris buffer of pH 7.4, radiation activity on the glass filter was determined. Non-specific bond was measured in the presence of a 10 μM thioperamide (manufactured by Sigam) to determine a 50% inhibition concentration (IC50 value) of the test compound to a specific N-alpha-methylhistamine bond [refer to Molecular Pharmacology, volume 55, page 1101 (1999)].

T1 sequence (Q9Y5N1 whole entry): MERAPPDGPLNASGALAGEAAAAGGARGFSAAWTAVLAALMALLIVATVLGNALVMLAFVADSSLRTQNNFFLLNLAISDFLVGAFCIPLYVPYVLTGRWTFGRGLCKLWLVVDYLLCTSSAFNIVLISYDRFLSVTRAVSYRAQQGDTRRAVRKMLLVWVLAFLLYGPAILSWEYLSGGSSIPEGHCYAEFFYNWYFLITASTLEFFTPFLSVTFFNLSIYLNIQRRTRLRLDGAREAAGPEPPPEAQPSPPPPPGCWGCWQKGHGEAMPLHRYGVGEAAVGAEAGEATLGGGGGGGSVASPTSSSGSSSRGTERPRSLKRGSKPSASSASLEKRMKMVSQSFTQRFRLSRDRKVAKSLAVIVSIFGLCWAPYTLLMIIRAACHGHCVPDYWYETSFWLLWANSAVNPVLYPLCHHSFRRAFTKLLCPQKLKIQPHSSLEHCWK

pIC50 | inhibition of the bond of N-alpha-methylhistamine (histamine analog) to a histamine H3 receptor | Structure (SMILES)
8.40 | strongly inhibited | CN(CCN1CCCCC1)C(=O)[C@H]1CC[C@@]2(CC1)OC(=O)c1cc(F)ccc12.Cl [Example 10, trans-5′-fluoro-3′-oxo-N-methyl-N-(2-piperidin-1-ylethyl)-spiro[cyclohexane-1,1′-(3′H)-isobenzofuran]-4-carboxamide hydrochloride]
10.10 | strongly inhibited | CN(CCN1CCCCC1)C(=O)[C@H]1CC[C@@]2(CC1)OC(=O)c1cc(-c3ccccn3)ccc12 [Example 58, trans-5′-(Pyridin-2-yl)-3′-oxo-N-methyl-N-(2-piperidin-1-ylethyl)-spiro[cyclohexane-1,1′-(3′H)-isobenzofuran]-4-carboxamide]
9.17 | strongly inhibited | CN(CCN1CCCCC1)C(=O)[C@H]1CC[C@@]2(CC1)OC(=O)c1cc(Oc3ccccn3)ccc12 [Example 68, trans-5′-(Pyridin-2-yloxy)-3′-oxo-N-methyl-N-(2-piperidin-1-ylethyl)-spiro[cyclohexane-1,1′-(3′H)-iso-benzofuran]-4-carboxamide]
